Results: patent US12698523B2, “Enhancement of nucleic acid polymerization by aromatic compounds” (priority 2019, dated 2026)

Key:
[1] = system: DNA polymerase; assay: Screen of PEMs for enhancement of XNTP polymerization (primer extension reaction, gel electrophoresis); assay type: biochemical; conditions: for DNA polymerase-mediated primer extension with XNTPs (length of extension products): FIG. 4 gel, no PEM additive: up to only around 14 XNTPs
Excerpt: The Sequencing by Expansion (SBX) methodology developed by the inventors provides significant performance enhancements in sequence read efficiency and accuracy of Xpandomers relative to native DNA. However, initial transcription of the sequence of the natural DNA template onto the measurable Xpandomer relies on the ability of DNA polymerase to utilize XNTPs as substrates (the generalized structure of an XNTP is discussed herein with reference to FIG. 1A and FIG. 2). […] In an effort to improve the efficiency and accuracy of XNTP polymerization into Xpandomers, several PEMs were screened for the ability to enhance DNA polymerase primer extension reactions using XNTPs as substrates.
A representative primer extension reaction may include the following reagents: 2 pmol primer, 2.2 pmol 45mer oligonucleotide template, 50 pmol of each XNTP (XATP, XCTP, XGTP, and XTTP), 50 Mm Tris HCl, Ph 6.79, 200 Mm NaCl, 20% PEG, 5% NMS, 0.5 nmol polyphosphate 60.19, 0.3 Mm MnCl2, and 0.6 μg of purified recombinant DNA polymerase protein. Reactions may be run for 1 hr at 23° C. Reaction products (i.e., constrained Xpandomers) are treated to cleave the phosphoramidate bonds, thereby generating linearized Xpandomers. Reaction products may be analyzed using gel electrophoresis on 4-12% acrylamide gels to resolve and visualize Xpandomer products of different lengths. For the PEM screen described above, PEMs were typically tested in the micro to millimolar range.
Again, this PEM activity is specific for compound 2, as other unrelated aromatic compounds had no effect (lanes 2-7).

[2] = target: T1, C4552 DNA polymerase (Saccharolobus solfataricus, UniProt Q97W02, A155G/A42V/D156R/D292Y/D294N/E291S/E324K/E325K/E327K/E79L/G187P/G299W/I153V/I189F/I248T/I295S/K152A/K317Q/K321Q/K56Y/K78D/L293W/M76W/N188Y/P184Q/Q82W/Q83G/R300S/S297Y/S86E/T290K/T301W/V289W/V296Q); assay: Primer extension assay with three 100mer templates derived from the HIV1, 2 and 3 genomes; assay type: biochemical, Sulfolobus solfataricus; conditions: 0.5 Mm PEM; HIV1, HIV2, HIV3 100mer templates; 30 minutes at 23° C.; FIG. 9
T1 construct: made in house
T1 sequence (Q97W02 other isoform, or with tags, fused parts or gaps with the stated changes): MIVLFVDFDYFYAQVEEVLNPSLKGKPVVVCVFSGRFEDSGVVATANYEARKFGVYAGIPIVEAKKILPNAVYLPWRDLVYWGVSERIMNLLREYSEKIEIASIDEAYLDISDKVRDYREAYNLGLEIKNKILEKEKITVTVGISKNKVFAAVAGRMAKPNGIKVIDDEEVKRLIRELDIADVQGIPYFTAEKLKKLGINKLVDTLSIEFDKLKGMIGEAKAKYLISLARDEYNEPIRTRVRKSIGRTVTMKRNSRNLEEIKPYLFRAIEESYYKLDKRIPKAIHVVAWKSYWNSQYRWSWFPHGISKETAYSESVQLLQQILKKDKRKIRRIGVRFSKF
Method: PEM activity of compounds 9-11 was tested in primer extension assays using three 100mer templates, derived from the HIV1, 2, and 3 genomes. Primer extension reactions included the following reagents: 75 Mm TrisCl, Ph 8.44, 175 Mm NH4Oac, 20% PEG8K, 5% NMS, 0.8 nmol PP-60.20, 0.6 Mm MnCl2, 2.3 μg Tth single-strand binding protein (SSB), 0.5 M or 1 M urea, 200 pmol each XNTP, 1.1 pmol template, 1 pmol oligonucleotide primer, 1.2 μg purified recombinant C4552 DNA polymerase, and 0.5 Mm PEM. 10 μL primer extension reactions were run for 30 minutes at 23° C. and reaction products were analyzed by gel electrophoresis.

[3] = target: T2, C4760 DNA polymerase (a variant of DPO4, SEQ ID NO:2) (Saccharolobus solfataricus, UniProt Q97W02, A155G/A42V/D156R/D292Y/D294N/E291S/E324K/E325K/E327K/E63R/E79L/G187P/G299W/I153V/I189F/I248T/I295S/K152A/K317Q/K321Q/K56Y/K78D/L293W/M76W/N188Y/P184Q/Q82W/Q83G/R300S/S297Y/S86E/T290K/T301W/V289W/V296Q); assay: Primer extension assay with the HIV2 100mer template; assay type: biochemical, Sulfolobus solfataricus; conditions: HIV2-derived 100mer template; for polymerization of XNTPs into lengthy Xpandomer copies (PEM activity): 2 Mm compound 16, 0.5, 1, 2, and 3 Mm compound 17, Kod SSB, 30 minutes at 37° C., FIG. 13; for polymerization of XNTPs into full length copies, combination of PEMs: combination of 2 Mm compound 16 and 0.1 Mm or 0.3 Mm compound 18, FIG. 13 lanes 10-12
T2 construct: made in house
T2 sequence (Q97W02 other isoform, or with tags, fused parts or gaps with the stated changes): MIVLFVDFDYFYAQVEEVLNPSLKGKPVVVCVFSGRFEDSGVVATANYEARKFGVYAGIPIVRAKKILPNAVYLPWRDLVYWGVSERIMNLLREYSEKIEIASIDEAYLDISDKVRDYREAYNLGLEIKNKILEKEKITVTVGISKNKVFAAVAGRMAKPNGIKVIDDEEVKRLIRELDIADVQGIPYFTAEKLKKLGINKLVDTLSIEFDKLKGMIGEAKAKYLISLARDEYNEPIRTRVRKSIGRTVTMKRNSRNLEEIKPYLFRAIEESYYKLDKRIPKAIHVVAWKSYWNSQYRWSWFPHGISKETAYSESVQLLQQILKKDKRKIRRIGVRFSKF
Method: PEM activity of compound 12 was tested in primer extension assays using the HIV2 100mer template. Primer extension reactions included the following reagents: 50 Mm TrisCl, 200 Mm NH4Oac, 20% PEG8K, 5% NMS, 0.6 nmol PP-60.20, 0.6 Mm MnCl2, 2.75 μg/μl Eco single-strand binding protein (SSB), 1 M urea, 50 pmol each XNTP, 1.1 pmol template, 1 pmol oligonucleotide primer, 1.2 μg/μl purified recombinant C4760 DNA polymerase (SEQ ID NO:2), and 0.5, 1, or 1.5 Mm PEM. 10 μL primer extension reactions were run for 30 minutes at 23° C. and reaction products were analyzed by gel electrophoresis. […] Lanes 2-4 show primer extension products from reactions with a structurally related additive lacking robust PEM activity.
PEM activity of compounds 13 and 14 was tested in primer extension assays using the HIV2 100mer template. Primer extension reactions included the following reagents: 50 Mm TrisCl, 200 Mm NH4Oac, 20% PEG8K, 5% NMS, 0.6 nmol PP-60.20, 0.6 Mm MnCl2, 2.75 μg/μl Eco single-strand binding protein (SSB), 1 M urea, 50 pmol each XNTP, 1.1 pmol template, 1 pmol oligonucleotide primer, 1.2 μg/μl purified recombinant C4760 DNA polymerase (a variant of DPO4, see SEQ ID NO:2), and 0.5, 1, 1.52, or 2.5 Mm PEM. 10 μL primer extension reactions were run for 30 minutes at 23° C. and reaction products were analyzed by gel electrophoresis. A representative gel showing primer extension products is presented in FIG. 11 (the position of the full length HIV2 100mer is indicated by the arrow).
PEM activity of compounds 16, 17, and 18 and combinations thereof were tested in primer extension assays using the HIV2-derived 100mer template. Primer extension reactions included the following reagents: 50 Mm TrisCl, 200 Mm NH4Oac, 20% or 25% PEG8K, 5% NMS, 0.6 nmol PP-60.20, 0.6 Mm MnCl2, 2 μg Kod single-strand binding protein (SSB), 1 M urea, 50 pmol each XNTP, 1 pmol template, 1 pmol oligonucleotide primer, 1.2 μg purified recombinant C4760 DNA polymerase (a variant of DPO4, see SEQ ID NO:2), and 0.5-2 Mm PEM. 10 μL primer extension reactions were run for 30 minutes at 37° C. and reaction products were analyzed by gel electrophoresis. A representative gel showing primer extension products is presented in FIG. 13 (the position of a 100mer product is indicated by the arrow).

[4] = target: T2, C4760 DNA polymerase (a variant of DPO4, SEQ ID NO:2); assay: Primer extension on a 45mer RNA template derived from the HIV2 genome sequence; assay type: biochemical, Sulfolobus solfataricus; conditions: 2 Mm PEM; 45mer RNA template from HIV2 genome; 30 minutes at 37° C.
Method: To begin to investigate the potential of PEMs to enhance diverse polymerase reactions, the ability of PEMS to enable DNA polymerase to utilize RNA as a template was tested. An initial screen of several compounds set forth in Table I was conducted using a 45mer RNA template derived from the HIV2 genome sequence. Primer extension reactions included the following reagents: 50 Mm TrisCl, 200 Mm NH4Oac, 20% PEG8K, 5% NMS, 0.6 nmol PP-60.20, 0.6 Mm MnCl2, 2 μg Kod single-strand binding protein (SSB), 1 M urea, 50 pmol each XNTP, 0.5 pmol template, 0.5 pmol oligonucleotide primer, 1.2 μg purified recombinant C4760 DNA polymerase (a variant of DPO4, see SEQ ID NO:2), and 2 Mm PEM. 10 μL primer extension reactions were run for 30 minutes at 37° C. and reaction products were analyzed by gel electrophoresis.

O=C(O)c1ccc(-n2cc(-c3cncc(-c4cn(-c5ccc(C(=O)O)c(O)c5)nn4)c3)nn2)cc1O [Compound 2, 4,4′-(pyridine-3,5-diylbis(1H-1,2,3-triazole-4,1-diyl))bis(2-hydroxybenzoic acid)]
primer extension activity with XNTPs ([1]; FIG. 5 gel, compound at various concentrations (lanes 8-10)): significantly enhances primer extension activity

O=C(O)c1ccc(-n2cc(-c3cccc(-c4cn(-c5ccc(C(=O)O)c(O)c5)nn4)c3)nn2)cc1O [Compound 3, 4,4′-(1,3-phenylenebis(1H-1,2,3-triazole-4,1-diyl))bis(2-hydroxybenzoic acid)]
DNA polymerase-mediated primer extension with XNTPs (length of extension products) [1]: considerably longer extension products

O=C(O)c1ccc(-n2cc(-c3ccc4[nH]c5ccc(-c6cn(-c7ccc(C(=O)O)c(O)c7)nn6)cc5c4c3)nn2)cc1O [Compound 4, 4,4′-((9H-carbazole-3,6-diyl)bis(1H-1,2,3-triazole-4,1-diyl))bis(2-hydroxybenzoic acid)]
DNA polymerase-mediated primer extension with XNTPs (length of extension products) [1]: considerably longer extension products

COc1cc(-c2cn(-c3ccc(C(=O)O)c(O)c3)nn2)nc(-c2cn(-c3ccc(C(=O)O)c(O)c3)nn2)c1 [Compound 9, 4,4′-((4-methoxypyridine-2,6-diyl)bis(1H-1,2,3-triazole-4,1-diyl))bis(2-hydroxybenzoic acid)]
polymerization of XNTPs into full length Xpandomer copies (PEM activity) [2]: enable XNTP polymerization at least as efficiently as compound 1

O=C(O)c1ccc(-n2cc(-c3cc([N+](=O)[O-])cc(-c4cn(-c5ccc(C(=O)O)c(O)c5)nn4)n3)nn2)cc1O [Compound 11, 4,4′-((4-nitropyridine-2,6-diyl)bis(1H-1,2,3-triazole-4,1-diyl))bis(2-hydroxybenzoic acid)]
polymerization of XNTPs into full length Xpandomer copies (PEM activity) [2]: enable XNTP polymerization at least as efficiently as compound 1

COC(=O)c1cc(-c2cn(-c3ccc(C(=O)O)c(O)c3)nn2)nc(-c2cn(-c3ccc(C(=O)O)c(O)c3)nn2)c1 [Compound 16, 4,4′-((4-(methoxycarbonyl)pyridine-2,6-diyl)bis(1H-1,2,3-triazole-4,1-diyl))bis(2-hydroxybenzoic acid)]
polymerization of XNTPs into lengthy Xpandomer copies (PEM activity) [3]: enable polymerization of XNTPs into lengthy Xpandomer copies of the 100mer template in a manner comparable to that of compound 14 | polymerization of XNTPs into full length copies, combination of PEMs [3]: enable polymerization of XNTPS into full length copies of the 100mer template

CCNC(=O)c1cc(-c2cn(-c3ccc(C(=O)O)c(O)c3)nn2)nc(-c2cn(-c3ccc(C(=O)O)c(O)c3)nn2)c1 [Compound 17, 4,4′-((4-(ethylcarbamoyl)pyridine-2,6-diyl)bis(1H-1,2,3-triazole-4,1-diyl))bis(2-hydroxybenzoic acid)]
PEM activity on an RNA template [4]: display PEM activity on an RNA template | polymerization of XNTPs into lengthy Xpandomer copies (PEM activity) [3]: enable polymerization of XNTPs into lengthy Xpandomer copies of the 100mer template in a manner comparable to that of compound 14 | polymerization of XNTPs into lengthy Xpandomer copies, combination of PEMs ([3]; combination of 2 Mm compound 14 and 0.1 Mm or 0.3 Mm compound 17, FIG. 13 lanes 7-9): also enabled polymerization of XNTPs into lengthy Xpandomer copies of the 100mer template

CNC(=O)c1cc(-c2cn(-c3ccc(C(=O)O)c(O)c3)nn2)nc(-c2cn(-c3ccc(C(=O)O)c(O)c3)nn2)c1 [Compound 18, 4,4′-((4-(methylcarbamoyl)pyridine-2,6-diyl)bis(1H-1,2,3-triazole-4,1-diyl))bis(2-hydroxybenzoic acid)]
polymerization of XNTPs into full length copies, combination of PEMs [3]: enable polymerization of XNTPS into full length copies of the 100mer template
